Experimental data taken from patent US20070098801A1, “Particles shaped as platelets” (JANSSEN PHARMACEUTICA N.V., priority 2003, published 2007).

Experiment: Modulated differential scanning calorimetry (glass transition in the reversing signal)
Format: physicochemical
Protocol: Modulated Differential scanning calorimetry (MDSC) was performed to evaluate the thermal characteristics before and after melt extrusion with injection of pressurized carbon dioxide. […] A glass transition is observed as an inflection in the DSC profile when heat flow is plotted against temperature. Often, the glass transition is accompanied with an enthalpy relaxation, which is seen as an endothermic signal superimposed on the glass transition. Furthermore, these polymers can be hydrophilic and thus they may have adsorbed a significant amount of water. Evaporation of water is also an endothermic process. These signals make interpretation of the glass transition difficult. Therefore, MDSC was used so that the different thermal events could be elucidated with regard to the reversible and non-reversible transitions. […]
The measurements were performed using a TA Instruments modulated DSC Q1000 differential scanning calorimeter and thermal analysis controller (TA Instruments, New Castle, Del., USA). […] The samples were analysed in standard (open) aluminum as well as in hermetically sealed TA Instruments pans. […] The glass transition was measured at the inflection point as half the height of the shift in the heat flow signal (Tg 1/2 cp). […]
The samples measured in open pans as well as in hermetically sealed pans were analysed at least in duplicate.

- Melting enthalpy ΔH of pure itraconazole: 85 J/g
SMILES: CCC(C)n1ncn(-c2ccc(N3CCN(c4ccc(OCC5COC(Cn6cncn6)(c6ccc(Cl)cc6Cl)O5)cc4)CC3)cc2)c1=O (stereo not shown) [itraconazole]
